Source: patent publication US20190183959A1, “COMPOSITIONS, KITS AND METHODS FOR TREATING TYPE II DIABETES MELLITUS” (VITNOVO, INC., priority 2017, published 2019)

Tested on: NIDDM mice
Test: Oral glucose tolerance test after 28 days of oral dosing in NIDDM db/db mice (Example 2)
Format: in vivo, mouse
Details: HC extract 80 mg/Kg, sitagliptin 40 mg/Kg, p.o.
Description: Non-insulin dependent diabetic mellitus (NIDDM) male db/db (BKS.Cg-Dock 7^m+/+Lepr^db/JNarl) were used in the present study. They were supplied by National Laboratory Animal Center (NLAC) (Taipei, Taiwan) or by Jackson Laboratory (Bar Harbor, Me., USA). […] In Example 2, test compounds (i.e., HC extract (40 mg/Kg from day 1 to day 14; 80 mg/Kg from day 14 to day 28, p.o.), sitagliptin (40 mg/Kg, p.o.), or the combination of HC extract and sitagliptin) at the designated dose was fed to each mice by oral gavage from day 1, and continued for 27 consecutive days to day 28. […] Blood glucose, insulin, glucagon, glycated haemoglobin (HbA1c) levels were measured on designated days after overnight fasting. Then, oral glucose tolerance test (OGTT) was performed to evaluate effects of respective treatments on glucose homeostasis. Body weight of each test animal was also measured during the study period. The db/db mice were randomly divided into 4 groups: (1) the vehicle control group, (2) the HC extract (80 mg/kg), (3) the sitagliptin (40 mg/Kg) group, and […] the HC extract (80 mg/kg)+sitagliptin (40 mg/Kg) group. The mice were fasted for 5 hours and then respectively received the indicated treatments. […] The animals were treated by the manner described in the “Material and Methods” section.

N[C@@H](CC(=O)N1CCn2c(nnc2C(F)(F)F)C1)Cc1cc(F)c(F)cc1F [sitagliptin]
reduction in the level of total blood glucose (FIG. 3) (30 minutes time point post glucose treatment): about 11.3%
effect on fasting blood glucose level (FIG. 2) (combination judged 30 minutes post glucose treatment vs either alone): reduction in the fasting blood glucose level
